In BindingDB's records for doi:10.1111/j.1747-0285.2007.00514.x (University of Maryland, 2007):

target: HIV-1 protease (Human immunodeficiency virus, UniProt O90783); assay: Inhibition Assay
From the text: Inhibition assay using HIV protease and Sulfonamide compounds.

HIV-1 protease, sequence (O90783 whole entry): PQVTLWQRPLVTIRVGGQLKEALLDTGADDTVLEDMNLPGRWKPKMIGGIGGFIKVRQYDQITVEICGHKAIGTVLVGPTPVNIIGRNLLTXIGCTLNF

Ki | SMILES
910 nM | COc1cc(C(=O)N[C@@H](Cc2ccccc2)[C@H](O)CN(C[C@H]2CCCO2)S(=O)(=O)c2cn(C)cn2)ccn1 [CARB-AC97]
110 nM | COc1cccc(S(=O)(=O)N(CC2CCCO2)C[C@@H](O)[C@H](Cc2ccccc2)NC(=O)c2ccnc(OC)c2)c1 (stereo partly specified) [CARB-AD08]
760 nM | CNC(=O)CCC(=O)N[C@@H](Cc1ccccc1)[C@H](O)CN(C[C@@H](C)O)S(=O)(=O)c1cccc(OC)c1 [CARB-KB32]
540 nM | CNC(=O)CCC(=O)N[C@@H](Cc1ccccc1)[C@H](O)CN(C[C@@H](C)O)S(=O)(=O)c1ccco1 [CARB-KB49]
260 nM | C[C@@H](O)CN(C[C@@H](O)[C@H](Cc1ccccc1)NC(=O)CC1C=CCC1)S(=O)(=O)c1ccco1 (stereo partly specified) [CARB-KB51]
0.18 nM | CC(=N[C@H]1c2ccccc2C[C@H]1O)[C@@H](Cc1ccccc1)C[C@H](O)CN1CCN(Cc2cccnc2)C[C@H]1C(=O)NC(C)(C)C [IDV]
